Experimental data as given in BindingDB's records for PubMed 9223586 (Georgetown University, 1997).

Target: Nicotinic acetylcholine receptor (Rattus leucopus, UniProt Q62594)
Sequence (Q62594 whole entry): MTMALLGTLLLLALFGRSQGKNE

## COc1cc2c3cc1Oc1cc(ccc1O)CC1c4c(cc(OC)c(O)c4Oc4ccc(cc4)CC3[N+](C)(C)CC2)CC[N+]1(C)C (stereo unspecified) [CAS_8063-06-7]
  Ki: 3.79 µM
